Calls of active or inactive are those of the source. For most assays here, no stated cut-off is given here; in the data, actives have a measured Kd and inactives only a lower limit.
Tests used:
[1] = molecular target: Serine/threonine-protein kinase SIK3 (Homo sapiens, UniProt Q9Y2K2)
[2] = molecular target: T1, Aurora kinase A (Homo sapiens, UniProt O14965)
T1 sequence (O14965 whole entry): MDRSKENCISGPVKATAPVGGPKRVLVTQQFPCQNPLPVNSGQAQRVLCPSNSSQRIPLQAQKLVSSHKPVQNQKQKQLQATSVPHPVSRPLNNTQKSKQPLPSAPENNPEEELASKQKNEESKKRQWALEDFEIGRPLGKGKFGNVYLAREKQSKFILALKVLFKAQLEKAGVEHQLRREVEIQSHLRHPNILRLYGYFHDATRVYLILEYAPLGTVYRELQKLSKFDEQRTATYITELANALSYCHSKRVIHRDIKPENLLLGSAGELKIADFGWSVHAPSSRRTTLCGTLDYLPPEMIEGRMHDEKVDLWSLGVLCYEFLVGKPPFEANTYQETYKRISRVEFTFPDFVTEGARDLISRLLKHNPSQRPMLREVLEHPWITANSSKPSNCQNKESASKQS

[3] = molecular target: Cyclin-dependent kinase 1 (Homo sapiens, UniProt P06493)
[4] = molecular target: T2, Serine/threonine-protein kinase 4 (Homo sapiens, UniProt Q13043)
T2 sequence (Q13043 whole entry): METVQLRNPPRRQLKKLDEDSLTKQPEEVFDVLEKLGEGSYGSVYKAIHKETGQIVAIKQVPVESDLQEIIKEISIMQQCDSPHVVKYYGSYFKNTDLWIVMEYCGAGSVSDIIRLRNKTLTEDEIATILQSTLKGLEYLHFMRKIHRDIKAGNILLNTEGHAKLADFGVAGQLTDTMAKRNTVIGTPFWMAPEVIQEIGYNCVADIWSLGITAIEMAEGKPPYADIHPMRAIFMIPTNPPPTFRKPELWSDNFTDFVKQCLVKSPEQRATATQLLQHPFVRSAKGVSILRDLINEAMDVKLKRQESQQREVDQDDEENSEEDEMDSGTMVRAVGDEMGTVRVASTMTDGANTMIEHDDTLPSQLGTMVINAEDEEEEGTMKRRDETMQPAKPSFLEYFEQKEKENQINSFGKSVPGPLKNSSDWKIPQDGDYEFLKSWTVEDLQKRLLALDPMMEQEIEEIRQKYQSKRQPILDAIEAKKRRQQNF

[5] = molecular target: Protein-tyrosine kinase 2-beta (Homo sapiens, UniProt Q14289)
[6] = molecular target: Serine/threonine-protein kinase MRCK beta (Homo sapiens, UniProt Q9Y5S2)
[7] = molecular target: T3, Cytochrome c1, heme protein, mitochondrial (Homo sapiens, UniProt P08574)
T3 sequence (P08574 whole entry): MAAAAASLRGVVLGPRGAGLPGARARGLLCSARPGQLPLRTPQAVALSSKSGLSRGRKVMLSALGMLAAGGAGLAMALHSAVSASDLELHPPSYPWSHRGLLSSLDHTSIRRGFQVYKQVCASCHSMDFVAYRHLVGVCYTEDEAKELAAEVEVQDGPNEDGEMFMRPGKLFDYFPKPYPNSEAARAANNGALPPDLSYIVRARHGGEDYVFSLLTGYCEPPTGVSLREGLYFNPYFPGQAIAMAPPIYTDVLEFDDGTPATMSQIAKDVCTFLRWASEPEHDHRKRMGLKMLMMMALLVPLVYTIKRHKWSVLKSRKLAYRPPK

[8] = molecular target: T4, Serine/threonine-protein kinase Nek3 (Homo sapiens, UniProt P51956)
T4 sequence (P51956 whole entry): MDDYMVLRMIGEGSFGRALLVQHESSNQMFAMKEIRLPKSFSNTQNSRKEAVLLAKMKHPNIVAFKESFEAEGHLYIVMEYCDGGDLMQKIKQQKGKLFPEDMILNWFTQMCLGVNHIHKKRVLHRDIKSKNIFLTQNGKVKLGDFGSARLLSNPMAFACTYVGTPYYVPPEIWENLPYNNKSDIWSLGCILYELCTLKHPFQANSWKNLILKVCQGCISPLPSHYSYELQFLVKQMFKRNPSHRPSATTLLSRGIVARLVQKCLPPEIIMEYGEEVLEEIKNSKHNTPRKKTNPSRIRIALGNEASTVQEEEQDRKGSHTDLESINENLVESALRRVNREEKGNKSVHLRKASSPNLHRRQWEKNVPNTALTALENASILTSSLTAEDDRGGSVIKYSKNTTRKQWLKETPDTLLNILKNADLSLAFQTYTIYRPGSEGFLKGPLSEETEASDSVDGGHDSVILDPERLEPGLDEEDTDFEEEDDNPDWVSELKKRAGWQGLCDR

[9] = molecular target: Receptor-interacting serine/threonine-protein kinase 3 (Homo sapiens, UniProt Q9Y572)
[10] = molecular target: T5, Dual specificity mitogen-activated protein kinase kinase 3 (Homo sapiens, UniProt P46734)
T5 sequence (P46734 whole entry): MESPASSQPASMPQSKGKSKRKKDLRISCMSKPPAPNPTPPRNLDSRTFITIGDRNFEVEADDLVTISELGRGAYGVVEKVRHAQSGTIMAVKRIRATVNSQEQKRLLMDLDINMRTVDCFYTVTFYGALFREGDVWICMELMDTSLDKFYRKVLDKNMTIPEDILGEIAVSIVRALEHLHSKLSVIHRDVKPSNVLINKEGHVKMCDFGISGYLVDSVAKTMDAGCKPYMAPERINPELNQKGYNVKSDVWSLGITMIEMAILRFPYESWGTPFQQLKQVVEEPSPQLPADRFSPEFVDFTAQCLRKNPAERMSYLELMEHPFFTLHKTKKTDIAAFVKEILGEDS

[11] = molecular target: DNA topoisomerase 2-beta (Homo sapiens, UniProt Q02880)
[12] = molecular target: cAMP-dependent protein kinase catalytic subunit alpha (Homo sapiens, UniProt P17612)
[13] = molecular target: Cyclin-dependent kinase 3 (Homo sapiens, UniProt Q00526)
[14] = molecular target: Tyrosine-protein kinase HCK (Homo sapiens, UniProt P08631)
[15] = molecular target: Ribosomal protein S6 kinase alpha-4 (Homo sapiens, UniProt O75676)
[16] = molecular target: Insulin receptor (Homo sapiens, UniProt P06213)

Cyclin-dependent kinase 3, sequence (Q00526 whole entry): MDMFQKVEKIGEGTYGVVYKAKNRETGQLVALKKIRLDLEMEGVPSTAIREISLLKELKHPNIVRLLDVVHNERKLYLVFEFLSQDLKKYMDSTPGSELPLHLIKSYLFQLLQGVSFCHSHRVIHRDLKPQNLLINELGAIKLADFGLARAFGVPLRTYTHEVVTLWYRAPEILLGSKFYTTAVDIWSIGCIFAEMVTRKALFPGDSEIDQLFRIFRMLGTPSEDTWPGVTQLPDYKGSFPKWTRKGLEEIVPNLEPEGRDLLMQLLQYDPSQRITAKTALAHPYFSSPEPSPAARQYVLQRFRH
Serine/threonine-protein kinase SIK3, sequence (Q9Y2K2 whole entry): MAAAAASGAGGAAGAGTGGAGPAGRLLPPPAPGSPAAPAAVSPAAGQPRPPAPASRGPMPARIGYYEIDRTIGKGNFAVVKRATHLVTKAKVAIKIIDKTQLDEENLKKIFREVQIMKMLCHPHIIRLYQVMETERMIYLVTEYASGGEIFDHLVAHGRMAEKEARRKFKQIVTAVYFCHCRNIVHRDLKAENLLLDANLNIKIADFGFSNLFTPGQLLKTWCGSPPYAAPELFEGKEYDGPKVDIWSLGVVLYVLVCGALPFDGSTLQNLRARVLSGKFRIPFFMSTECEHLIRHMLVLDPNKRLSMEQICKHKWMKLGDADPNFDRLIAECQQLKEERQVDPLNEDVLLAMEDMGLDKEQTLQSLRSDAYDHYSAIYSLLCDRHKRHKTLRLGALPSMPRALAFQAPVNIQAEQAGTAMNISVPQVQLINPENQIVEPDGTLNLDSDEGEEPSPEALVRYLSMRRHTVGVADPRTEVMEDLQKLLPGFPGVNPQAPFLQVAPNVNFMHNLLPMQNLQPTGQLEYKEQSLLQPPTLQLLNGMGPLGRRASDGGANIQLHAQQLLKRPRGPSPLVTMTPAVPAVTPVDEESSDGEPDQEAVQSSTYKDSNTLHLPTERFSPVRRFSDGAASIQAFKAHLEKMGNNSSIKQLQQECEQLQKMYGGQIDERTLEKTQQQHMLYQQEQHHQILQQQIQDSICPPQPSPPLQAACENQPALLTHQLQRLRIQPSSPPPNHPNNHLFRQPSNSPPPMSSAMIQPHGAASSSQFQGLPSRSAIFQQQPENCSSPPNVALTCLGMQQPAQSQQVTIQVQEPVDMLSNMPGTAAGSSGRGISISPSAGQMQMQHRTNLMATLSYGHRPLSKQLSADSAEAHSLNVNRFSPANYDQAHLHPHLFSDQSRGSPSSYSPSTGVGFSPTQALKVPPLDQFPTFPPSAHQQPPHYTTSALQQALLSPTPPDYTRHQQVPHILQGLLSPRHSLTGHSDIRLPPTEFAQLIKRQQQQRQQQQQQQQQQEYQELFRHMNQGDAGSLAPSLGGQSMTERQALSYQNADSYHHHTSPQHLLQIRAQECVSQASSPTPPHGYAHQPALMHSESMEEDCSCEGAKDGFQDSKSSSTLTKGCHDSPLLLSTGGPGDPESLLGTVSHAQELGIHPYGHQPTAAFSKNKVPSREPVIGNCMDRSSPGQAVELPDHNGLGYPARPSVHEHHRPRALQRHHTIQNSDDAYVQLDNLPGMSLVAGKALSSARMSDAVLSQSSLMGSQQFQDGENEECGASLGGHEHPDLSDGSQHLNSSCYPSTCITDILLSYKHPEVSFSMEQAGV
DNA topoisomerase 2-beta, sequence (Q02880 whole entry): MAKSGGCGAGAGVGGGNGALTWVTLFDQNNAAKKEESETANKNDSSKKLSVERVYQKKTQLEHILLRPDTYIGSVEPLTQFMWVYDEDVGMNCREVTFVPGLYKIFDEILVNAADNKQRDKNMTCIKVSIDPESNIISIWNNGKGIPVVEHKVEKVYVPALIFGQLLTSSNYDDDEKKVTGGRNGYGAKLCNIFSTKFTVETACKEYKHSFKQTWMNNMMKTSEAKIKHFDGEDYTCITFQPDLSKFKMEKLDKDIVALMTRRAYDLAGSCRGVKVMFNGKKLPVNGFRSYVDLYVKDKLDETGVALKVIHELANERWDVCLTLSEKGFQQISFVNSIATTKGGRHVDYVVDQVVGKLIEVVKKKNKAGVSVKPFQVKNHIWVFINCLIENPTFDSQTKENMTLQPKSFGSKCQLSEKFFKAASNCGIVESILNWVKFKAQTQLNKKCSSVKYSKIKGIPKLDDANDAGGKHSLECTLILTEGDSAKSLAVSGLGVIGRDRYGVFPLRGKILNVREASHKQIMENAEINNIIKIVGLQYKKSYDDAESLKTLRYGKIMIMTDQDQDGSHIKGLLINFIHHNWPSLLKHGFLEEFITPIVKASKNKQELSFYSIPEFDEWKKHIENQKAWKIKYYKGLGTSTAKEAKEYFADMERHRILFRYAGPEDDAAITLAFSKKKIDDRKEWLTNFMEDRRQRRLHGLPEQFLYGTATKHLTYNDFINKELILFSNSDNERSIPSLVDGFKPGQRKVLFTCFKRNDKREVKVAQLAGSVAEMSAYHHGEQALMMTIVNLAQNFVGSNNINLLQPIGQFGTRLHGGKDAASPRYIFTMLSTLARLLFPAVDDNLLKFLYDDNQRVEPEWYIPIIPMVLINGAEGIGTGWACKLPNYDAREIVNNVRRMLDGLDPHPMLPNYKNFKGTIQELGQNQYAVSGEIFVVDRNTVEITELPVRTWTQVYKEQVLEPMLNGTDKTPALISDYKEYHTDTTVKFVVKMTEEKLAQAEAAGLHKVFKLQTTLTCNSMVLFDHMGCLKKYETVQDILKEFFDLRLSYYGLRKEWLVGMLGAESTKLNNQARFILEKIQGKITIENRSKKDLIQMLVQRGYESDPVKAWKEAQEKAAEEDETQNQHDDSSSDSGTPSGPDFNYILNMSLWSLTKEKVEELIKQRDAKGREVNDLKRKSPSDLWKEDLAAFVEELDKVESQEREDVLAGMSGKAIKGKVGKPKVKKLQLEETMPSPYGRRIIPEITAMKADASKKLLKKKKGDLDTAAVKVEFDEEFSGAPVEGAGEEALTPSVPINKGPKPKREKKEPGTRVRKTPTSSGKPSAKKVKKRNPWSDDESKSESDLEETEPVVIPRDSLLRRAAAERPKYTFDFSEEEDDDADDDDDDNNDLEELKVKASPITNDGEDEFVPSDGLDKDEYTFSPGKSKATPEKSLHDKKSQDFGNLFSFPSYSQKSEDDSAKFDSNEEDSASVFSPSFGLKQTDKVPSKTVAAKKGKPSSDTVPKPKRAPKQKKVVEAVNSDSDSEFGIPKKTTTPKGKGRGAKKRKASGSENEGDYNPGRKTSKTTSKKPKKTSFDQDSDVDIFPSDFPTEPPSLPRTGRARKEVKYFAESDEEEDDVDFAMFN
Cyclin-dependent kinase 1, sequence (P06493 whole entry): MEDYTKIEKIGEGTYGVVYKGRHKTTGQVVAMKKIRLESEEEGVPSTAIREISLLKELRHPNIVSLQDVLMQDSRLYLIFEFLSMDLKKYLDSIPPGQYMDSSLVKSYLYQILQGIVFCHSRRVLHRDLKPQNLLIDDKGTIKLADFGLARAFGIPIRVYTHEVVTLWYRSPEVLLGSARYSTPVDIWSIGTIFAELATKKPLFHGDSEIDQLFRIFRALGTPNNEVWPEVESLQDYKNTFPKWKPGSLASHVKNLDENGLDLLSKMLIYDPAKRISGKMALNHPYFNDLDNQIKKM
Protein-tyrosine kinase 2-beta, sequence (Q14289 whole entry): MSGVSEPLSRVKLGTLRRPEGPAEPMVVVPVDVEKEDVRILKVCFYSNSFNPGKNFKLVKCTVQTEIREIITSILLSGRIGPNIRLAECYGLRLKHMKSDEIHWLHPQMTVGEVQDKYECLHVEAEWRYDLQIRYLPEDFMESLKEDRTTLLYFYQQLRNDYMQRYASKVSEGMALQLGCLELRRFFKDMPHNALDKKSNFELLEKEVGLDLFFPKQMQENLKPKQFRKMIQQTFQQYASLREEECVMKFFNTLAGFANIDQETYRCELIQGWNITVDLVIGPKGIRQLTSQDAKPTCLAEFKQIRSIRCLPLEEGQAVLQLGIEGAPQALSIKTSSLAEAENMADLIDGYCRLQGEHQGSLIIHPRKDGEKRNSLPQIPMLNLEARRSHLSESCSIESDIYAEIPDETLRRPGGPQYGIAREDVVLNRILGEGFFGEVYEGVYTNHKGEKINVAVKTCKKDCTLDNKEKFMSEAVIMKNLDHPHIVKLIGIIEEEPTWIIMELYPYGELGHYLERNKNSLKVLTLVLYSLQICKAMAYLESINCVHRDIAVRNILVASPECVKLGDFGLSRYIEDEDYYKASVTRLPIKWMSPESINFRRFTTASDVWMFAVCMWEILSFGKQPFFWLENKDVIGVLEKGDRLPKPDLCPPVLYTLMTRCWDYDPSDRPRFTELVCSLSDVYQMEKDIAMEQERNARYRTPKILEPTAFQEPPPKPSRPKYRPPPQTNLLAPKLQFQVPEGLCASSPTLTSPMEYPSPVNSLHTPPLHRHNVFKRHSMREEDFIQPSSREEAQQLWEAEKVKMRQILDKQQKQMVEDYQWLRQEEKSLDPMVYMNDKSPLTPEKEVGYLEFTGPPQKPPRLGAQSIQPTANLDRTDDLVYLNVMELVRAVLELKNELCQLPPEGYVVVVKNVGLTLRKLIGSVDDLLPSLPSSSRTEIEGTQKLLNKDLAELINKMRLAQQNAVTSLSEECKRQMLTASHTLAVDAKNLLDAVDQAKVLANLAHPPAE
Tyrosine-protein kinase HCK, sequence (P08631 whole entry): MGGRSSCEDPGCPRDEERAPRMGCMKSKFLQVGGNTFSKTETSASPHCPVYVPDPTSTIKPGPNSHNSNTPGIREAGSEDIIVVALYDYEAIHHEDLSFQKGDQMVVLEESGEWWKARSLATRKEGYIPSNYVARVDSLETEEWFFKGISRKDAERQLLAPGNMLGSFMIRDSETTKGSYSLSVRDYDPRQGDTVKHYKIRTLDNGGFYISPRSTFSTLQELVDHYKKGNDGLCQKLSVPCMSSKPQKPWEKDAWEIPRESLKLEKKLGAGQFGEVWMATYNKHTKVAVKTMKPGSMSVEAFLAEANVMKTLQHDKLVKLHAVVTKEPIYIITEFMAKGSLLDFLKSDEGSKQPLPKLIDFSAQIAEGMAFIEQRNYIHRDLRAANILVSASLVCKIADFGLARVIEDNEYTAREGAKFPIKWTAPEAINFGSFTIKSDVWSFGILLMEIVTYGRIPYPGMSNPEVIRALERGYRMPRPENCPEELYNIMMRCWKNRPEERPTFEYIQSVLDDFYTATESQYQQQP

Row | SMILES | Kd [1] | Kd [2] | Kd [3] | Kd [4] | Kd [5] | Kd [6] | Kd [7] | Kd [8] | Kd [9] | Kd [10] | Kd [11] | Kd [12] | Kd [13] | Kd [14] | Kd [15] | Kd [16]
1 | CN1CCC(CNc2ccc3ncc(-c4cccc(OC(F)(F)F)c4)n3n2)CC1 [SGI-1776] | > 30 µM (inactive) | > 30 µM (inactive) | > 30 µM (inactive) | > 30 µM (inactive) | > 30 µM (inactive) | > 30 µM (inactive) | > 30 µM (inactive) | > 30 µM (inactive) | > 30 µM (inactive) | > 30 µM (inactive) | > 30 µM (inactive) | > 30 µM (inactive) | > 30 µM (inactive) | > 30 µM (inactive) | > 30 µM (inactive) | > 30 µM (inactive)
2 | COc1cc(OC)c(/C=C/S(=O)(=O)Cc2ccc(OC)c(NCC(=O)O)c2)c(OC)c1 [RIGOSERTIB] | > 30 µM (inactive) | > 30 µM (inactive) | > 30 µM (inactive) | > 30 µM (inactive) | > 30 µM (inactive) | > 30 µM (inactive) | > 30 µM (inactive) | > 30 µM (inactive) | > 30 µM (inactive) | > 30 µM (inactive) | > 30 µM (inactive) | > 30 µM (inactive) | > 30 µM (inactive) | > 30 µM (inactive) | > 30 µM (inactive) | > 30 µM (inactive)
3 | COC(=O)N[C@@H](C)CNc1nccc(-c2cn(C(C)C)nc2-c2cc(Cl)cc(NS(C)(=O)=O)c2F)n1 [ENCORAFENIB] | > 30 µM (inactive) | > 30 µM (inactive) | > 30 µM (inactive) | > 30 µM (inactive) | > 30 µM (inactive) | > 30 µM (inactive) | > 30 µM (inactive) | > 30 µM (inactive) | 0.967 µM (active) | > 30 µM (inactive) | > 30 µM (inactive) | > 30 µM (inactive) | > 30 µM (inactive) | > 30 µM (inactive) | > 30 µM (inactive) | > 30 µM (inactive)
4 | C1=C/COCc2cc(ccc2OCCN2CCCC2)Nc2nccc(n2)-c2cccc(c2)COC/1 [PACRITINIB] | > 30 µM (inactive) | > 30 µM (inactive) | > 30 µM (inactive) | > 30 µM (inactive) | > 30 µM (inactive) | > 30 µM (inactive) | > 30 µM (inactive) | > 30 µM (inactive) | > 30 µM (inactive) | > 30 µM (inactive) | > 30 µM (inactive) | > 30 µM (inactive) | > 30 µM (inactive) | > 30 µM (inactive) | > 30 µM (inactive) | > 30 µM (inactive)
5 | COCCNCc1ccc(-c2cc3nccc(Oc4ccc(NC(=S)NC(=O)Cc5ccc(F)cc5)cc4F)c3s2)nc1 [GLESATINIB] | > 30 µM (inactive) | > 30 µM (inactive) | > 30 µM (inactive) | > 30 µM (inactive) | > 30 µM (inactive) | > 30 µM (inactive) | > 30 µM (inactive) | > 30 µM (inactive) | > 30 µM (inactive) | > 30 µM (inactive) | > 30 µM (inactive) | > 30 µM (inactive) | > 30 µM (inactive) | 0.283 µM (active) | > 30 µM (inactive) | > 30 µM (inactive)
6 | N[C@@H]1CCCN(c2c(/C=C3\SC(=O)NC3=O)cccc2-c2ccccc2)C1 | > 30 µM (inactive) | > 30 µM (inactive) | > 30 µM (inactive) | > 30 µM (inactive) | > 30 µM (inactive) | > 30 µM (inactive) | > 30 µM (inactive) | > 30 µM (inactive) | > 30 µM (inactive) | > 30 µM (inactive) | > 30 µM (inactive) | > 30 µM (inactive) | > 30 µM (inactive) | > 30 µM (inactive) | > 30 µM (inactive) | > 30 µM (inactive)
7 | CNC(=O)CN1CCC(Oc2cc3c(Nc4cccc(Cl)c4F)ncnc3cc2OC)CC1 [SAPITINIB] | > 30 µM (inactive) | > 30 µM (inactive) | > 30 µM (inactive) | > 30 µM (inactive) | > 30 µM (inactive) | > 30 µM (inactive) | > 30 µM (inactive) | > 30 µM (inactive) | 1.17 µM (active) | > 30 µM (inactive) | > 30 µM (inactive) | > 30 µM (inactive) | > 30 µM (inactive) | > 30 µM (inactive) | > 30 µM (inactive) | > 30 µM (inactive)

Next, values leading:

Row | Kd [1] | Kd [2] | Kd [3] | Kd [4] | Kd [5] | Kd [6] | Kd [7] | Kd [8] | Kd [9] | Kd [10] | Kd [11] | Kd [12] | Kd [13] | Kd [14] | Kd [15] | Kd [16] | SMILES
8 | > 30 µM (inactive) | > 30 µM (inactive) | > 30 µM (inactive) | > 30 µM (inactive) | > 30 µM (inactive) | > 30 µM (inactive) | > 30 µM (inactive) | > 30 µM (inactive) | > 30 µM (inactive) | > 30 µM (inactive) | > 30 µM (inactive) | > 30 µM (inactive) | > 30 µM (inactive) | > 30 µM (inactive) | > 30 µM (inactive) | > 30 µM (inactive) | O=c1sn(-c2cccc3ccccc23)c(=O)n1Cc1ccccc1 [TIDEGLUSIB]
9 | > 30 µM (inactive) | > 30 µM (inactive) | > 30 µM (inactive) | > 30 µM (inactive) | > 30 µM (inactive) | > 30 µM (inactive) | > 30 µM (inactive) | > 30 µM (inactive) | > 30 µM (inactive) | > 30 µM (inactive) | > 30 µM (inactive) | > 30 µM (inactive) | > 30 µM (inactive) | > 30 µM (inactive) | > 30 µM (inactive) | > 30 µM (inactive) | CC[C@H](Nc1ncnc2[nH]cnc12)c1nc2cccc(F)c2c(=O)n1-c1ccccc1 [IDELALISIB]
10 | > 30 µM (inactive) | > 30 µM (inactive) | > 30 µM (inactive) | > 30 µM (inactive) | > 30 µM (inactive) | > 30 µM (inactive) | > 30 µM (inactive) | > 30 µM (inactive) | > 30 µM (inactive) | > 30 µM (inactive) | > 30 µM (inactive) | > 30 µM (inactive) | > 30 µM (inactive) | > 30 µM (inactive) | > 30 µM (inactive) | > 30 µM (inactive) | Cn1cc(-c2ccc3nnc(C(F)(F)c4ccc5ncccc5c4)n3n2)cn1 [JNJ-38877605]
